ChEMBL document CHEMBL1275271, “QSAR and docking studies of novel antileishmanial diaryl sulfides and sulfonamides” (Eur J Med Chem, 2010)

Experiments:
Leishmania donovani = test: Antileishmanial activity against Leishmania donovani; format: functional, organism-based
in vivo = details: rat, po
[1] = Octanol-water partition coefficient, log P of the compound
[2] = Toxicity in po dosed mouse; details: in vivo

SMILES | IC50 (Leishmania donovani) [µM] | LD50 (in vivo) [mg/kg] | logP [1] | LD50 [2] [mg/kg]
Cc1nc(Sc2nccn2-c2cc(Cl)ccc2Cl)c(C(=O)O)cc1C#N | 21 |  |  | 
O=[N+]([O-])c1ccc(Oc2c(Cl)cccc2Cl)c([N+](=O)[O-])c1Oc1c(Cl)cccc1Cl | 80 |  |  | 
O=C1NC(=O)c2cc([N+](=O)[O-])c(Sc3c(Cl)cccc3Cl)cc21 | 60 |  |  | 
O=[N+]([O-])c1cc([N+](=O)[O-])c(S(=O)(=O)Nc2cccc(F)c2)c(C(F)(F)F)c1 |  | 620 | 4.39 | 880
Cc1cc(NS(=O)(=O)c2c([N+](=O)[O-])cc([N+](=O)[O-])cc2C(F)(F)F)c(Cl)cc1Cl |  | 350 | 6.44 | 650
CCCN(CCC)c1c([N+](=O)[O-])cc(Sc2cc(C)c(Cl)cc2Cl)cc1[N+](=O)[O-] |  | 1600 | 8.66 | 1800
N#Cc1cc([N+](=O)[O-])c(S(=O)(=O)Nc2cccc(F)c2)c([N+](=O)[O-])c1 |  | 1200 | 2.51 | 1300
Cc1cc(S(=O)(=O)c2c([N+](=O)[O-])cc(C#N)cc2[N+](=O)[O-])c(Cl)cc1Cl |  | 1000 | 4.08 | 1100
CCCN(CCC)c1c([N+](=O)[O-])cc(Sc2ccc(OC)cc2)cc1[N+](=O)[O-] |  | 1900 | 6.53 | 1600
Cc1cc(S(=O)(=O)c2c([N+](=O)[O-])cc(C(F)(F)F)cc2[N+](=O)[O-])c(Cl)cc1Cl |  | 1200 | 5.72 | 1800
CCCN(CCC)c1c([N+](=O)[O-])cc(C(N)=O)cc1[N+](=O)[O-] | 32 |  |  | 
O=[N+]([O-])c1cc(C(F)(F)F)cc([N+](=O)[O-])c1Sc1ccc(Cl)cc1Cl |  | 600 | 6.73 | 780
Cc1cc(Sc2ncc(C(F)(F)F)cc2[N+](=O)[O-])c(Cl)cc1Cl | 98.2 |  |  | 
Cc1cc(Sc2ccc(C(F)(F)F)cc2[N+](=O)[O-])c(Cl)cc1Cl | 59 |  |  | 
COc1ccc(Sc2c([N+](=O)[O-])cc(C#N)cc2[N+](=O)[O-])cc1 | 0.67 | 1400 | 3.56 | 1100
CCCN(CCC)c1c([N+](=O)[O-])cc(S(=O)(=O)Nc2ccc(OC)cc2)cc1[N+](=O)[O-] | 76 |  |  | 
CCCCCCN(CCCCCC)c1c([N+](=O)[O-])cc(S(N)(=O)=O)cc1[N+](=O)[O-] | 12 |  |  | 
CCCN(CCC)c1c([N+](=O)[O-])cc(S(N)(=O)=O)cc1[N+](=O)[O-] [ORYZALIN] |  | 1400 | 3.38 | 1600
